Structures can show the parent of a compound that is named as a salt.

The values that follow come from patent publication US8217176B2, “Fused heterocyclic derivative and use thereof” (Takeda Pharmaceutical Company Limited, priority 2008, dated 2012).

This test deals with NIH-3T3/Gli reporter cells. The test can be described thus: Evaluation of compound: Shh-N-induced luciferase activity in NIH-3T3/Gli reporter cells (Smo inhibitory action). The format is cell-based. Particulars: 48 hr; for inhibition at 1 µM: NIH3T3, 1 μM compound, mouse Shh-N end fragment supernatant, read-out: inhibition rate (%) at 1 μM; for IC50: NIH3T3, mouse Shh-N end fragment supernatant, read-out: IC50 value (compound concentration necessary for achieving 50% of the maximum value of inhibition rate). As to the method:
HEK293 cells were grown in D-MEM medium (Invitrogen) containing 10% fetal bovine serum in a 10 cm dish and pcDNA3.1/mShh-N was introduced into the cells using FuGENE6 (Roche Applied Science). Thereafter, the HEK293 cells were cultured in a carbon dioxide gas incubator at 37° C. for 24 hours, and the medium was exchanged with D-MEM medium (Invitrogen) containing 2% fetal bovine serum. After culturing for 48 hr, a culture supernatant containing recombinant type mouse Shh-N end fragment was obtained by filtration using a filter ([…]).
Using D-MEM (Invitrogen) containing 10% fetal bovine serum, expression plasmid pcDNA3.1 and Gli reporter plasmid (pGL3/δ-cry promoter, 8×Gli binding site) produced by the method of Experimental Example 1 were introduced into NIH-3T3 cells grown in a 10 cm dish by the use of FuGENE6 (Roche Applied Science).
After culture for 24 hr, the cells were recovered, suspended in D-MEM medium containing 10% fetal bovine serum and supplemented with Geneticin (Life Technologies Oriental, Inc.) to a final concentration of 500 μg/ml, diluted to 10^4 cells/ml, plated on a 96 well plate, and cultured in a carbon dioxide gas incubator at 37° C. to give Geneticin resistant transformed cell line.
The obtained transformed cell line was cultured in a 96 well plate, mouse Shh-N end fragment obtained in Experimental Example 3 was added, and NIH-3T3/Gli reporter cell, which is a cell line capable of induction of luciferase expression, was selected.
NIH-3T3/Gli reporter cells cultured in D-MEM (Invitrogen) containing 10% fetal bovine serum were plated in a 96 well white plate at 1×10^4 cells/well, and cultured overnight in a carbon dioxide gas incubator at 37° C. The medium was removed, a compound (50 μl) and culture supernatant of mouse Shh-N end fragment-expressing HEK293 (D-MEM medium containing 2% fetal bovine serum, 50 μl) were added, and the cells were cultured for 48 hr in a carbon dioxide gas incubator at 37° C. Bright-Glo (Promega, 50 μl) was added, and the mixture was stirred, after which luciferase activity was measured by EnVision (PerkinElmer). The inhibition rate was calculated based on the luciferase activity of the control without addition of the compound as 100. The concentration of the compound and the inhibition rate were analyzed by PRISM3.00 (software of GraphPad), based on which the IC50 value (compound concentration necessary for achieving 50% of the maximum value of inhibition rate) of the compound was calculated.

In the case of `COc1c(C(=O)NCC2CCCCN2)sc2c1c(=O)n(CC(=O)c1ccccc1)c1ccccc21` (stereo not drawn) [Example 74, 3-methoxy-4-oxo-5-(2-oxo-2-phenylethyl)-N-(piperidin-2-ylmethyl)-4,5-dihydrothieno[3,2-c]quinoline-2-carboxamide hydrochloride], the inhibition at 1 µM was determined as 100% and the IC50 is not above 1000 nM.
The matching figures for `COc1c(C(=O)NC(C)CN(C)C)n(C)c2c1c(=O)n(CC(=O)c1ccccc1)c1ccccc21` (stereo not drawn) [Example 92, N-[2-(dimethylamino)-1-methylethyl]-3-methoxy-1-methyl-4-oxo-5-(2-oxo-2-phenylethyl)-4,5-dihydro-1H-pyrrolo[3,2-c]quinoline-2-carboxamide]: 100% and not above 1000 nM.
As for `COc1c(C(=O)NCC2CCCN(CCO)C2)n(C)c2c1c(=O)n(CC(=O)c1ccccc1)c1ccccc21` (stereo not drawn) [Example 102, N-{[1-(2-hydroxyethyl)piperidin-3-yl]methyl}-3-methoxy-1-methyl-4-oxo-5-(2-oxo-2-phenylethyl)-4,5-dihydro-1H-pyrrolo[3,2-c]quinoline-2-carboxamide], the inhibition at 1 µM turned out to be 80% and the IC50 is not above 1000 nM.
The matching figures for `COc1c(C(=O)NCC(C)(C)CO)n(C)c2c1c(=O)n(CC(=O)c1ccccc1)c1ccccc21` [Example 109, N-(3-hydroxy-2,2-dimethylpropyl)-3-methoxy-1-methyl-4-oxo-5-(2-oxo-2-phenylethyl)-4,5-dihydro-1H-pyrrolo[3,2-c]quinoline-2-carboxamide]: 100% and not above 1000 nM.
The matching figures for `COc1c(C(=O)N(C)CCNC(C)C)sc2c1c(=O)n(CC(=O)c1ccccc1)c1ccccc21` [Example 115, 3-methoxy-N-methyl-N-{2-[(1-methylethyl)amino]ethyl}-4-oxo-5-(2-oxo-2-phenylethyl)-4,5-dihydrothieno[3,2-c]quinoline-2-carboxamide hydrochloride]: 100% and not above 1000 nM.
`COc1c(C(=O)N[C@H]2CC[C@H](O)CC2)n(C)c2c1c(=O)n(CC(=O)c1ccccc1)c1ccccc21` [Example 118, N-(trans-4-hydroxycyclohexyl)-3-methoxy-1-methyl-4-oxo-5-(2-oxo-2-phenylethyl)-4,5-dihydro-1H-pyrrolo[3,2-c]quinoline-2-carboxamide]: the inhibition at 1 µM amounted to 100%.
The same measure, in the same setting: next, `CCc1cc2c(c(OC)c(C(=O)NC3CCN(C(=O)CO)CC3)n2C)c(=O)n1CC(=O)c1ccccc1` [Example 131, 6-ethyl-N-[1-(hydroxyacetyl)piperidin-4-yl]-3-methoxy-1-methyl-4-oxo-5-(2-oxo-2-phenylethyl)-4,5-dihydro-1H-pyrrolo[3,2-c]pyridine-2-carboxamide]: 100%.
On to `CCOc1c(C(=O)NCC(C)(C)O)n(C)c2cc(C)n(CC(=O)c3ccccc3)c(=O)c12` [Example 132, 3-ethoxy-N-(2-hydroxy-2-methylpropyl)-1,6-dimethyl-4-oxo-5-(2-oxo-2-phenylethyl)-4,5-dihydro-1H-pyrrolo[3,2-c]pyridine-2-carboxamide], for which the inhibition at 1 µM is 100%.
Same read-out and setting: next, `COc1c(C(=O)NC2CCN(c3ccncc3)CC2)n(C)c2cc(C)n(CC(=O)c3ccccc3)c(=O)c12` [Example 135, 3-methoxy-1,6-dimethyl-4-oxo-5-(2-oxo-2-phenylethyl)-N-(1-pyridin-4-ylpiperidin-4-yl)-4,5-dihydro-1H-pyrrolo[3,2-c]pyridine-2-carboxamide]: 100%.
With `CCOc1c(C(=O)NC2CCN(C(=O)CO)CC2)n(C)c2cc(C)n(CC(=O)c3ccccc3)c(=O)c12` [Example 136, 3-ethoxy-N-[1-(hydroxyacetyl)piperidin-4-yl]-1,6-dimethyl-4-oxo-5-(2-oxo-2-phenylethyl)-4,5-dihydro-1H-pyrrolo[3,2-c]pyridine-2-carboxamide], the inhibition at 1 µM was determined as 100%.
Regarding `CCCOc1c(C(=O)NC2CCN(C(=O)CO)CC2)n(C)c2cc(C)n(CC(=O)c3ccccc3)c(=O)c12` [Example 137, N-[1-(hydroxyacetyl)piperidin-4-yl]-1,6-dimethyl-4-oxo-5-(2-oxo-2-phenylethyl)-3-propoxy-4,5-dihydro-1H-pyrrolo[3,2-c]pyridine-2-carboxamide], the inhibition at 1 µM turned out to be 100%.
The same measure, in the same setting: next, `CCOc1c(C(=O)NC2CCN(CCO)CC2)n(C)c2cc(C)n(CC(=O)c3ccccc3)c(=O)c12` [Example 138, 3-ethoxy-N-[1-(2-hydroxyethyl)piperidin-4-yl]-1,6-dimethyl-4-oxo-5-(2-oxo-2-phenylethyl)-4,5-dihydro-1H-pyrrolo[3,2-c]pyridine-2-carboxamide]: 100%.
For `CCCc1cc2c(c(OCC)c(C(=O)NC3CCN(C(=O)CO)CC3)n2C)c(=O)n1CC(=O)c1ccccc1` [Example 141, 3-ethoxy-N-[1-(hydroxyacetyl)piperidin-4-yl]-1-methyl-4-oxo-5-(2-oxo-2-phenylethyl)-6-propyl-4,5-dihydro-1H-pyrrolo[3,2-c]pyridine-2-carboxamide], the inhibition at 1 µM was found to be 100%.
On the same count and under the same terms, the figure for `CCc1cc2c(c(OCCF)c(C(=O)NC3CCN(C(=O)CO)CC3)n2C)c(=O)n1CC(=O)c1ccccc1` [Example 142, 6-ethyl-3-(2-fluoroethoxy)-N-[1-(hydroxyacetyl)piperidin-4-yl]-1-methyl-4-oxo-5-(2-oxo-2-phenylethyl)-4,5-dihydro-1H-pyrrolo[3,2-c]pyridine-2-carboxamide] is 100%; for `CCCOc1c(C(=O)NC2CCN(C(=O)CO)CC2)n(C)c2cc(CC)n(CC(=O)c3ccccc3)c(=O)c12` [Example 510, 6-ethyl-N-[1-(hydroxyacetyl)piperidin-4-yl]-1-methyl-4-oxo-5-(2-oxo-2-phenylethyl)-3-propoxy-4,5-dihydro-1H-pyrrolo[3,2-c]pyridine-2-carboxamide] it is 100%; for `COc1c(C(=O)NC2CCN(C(=O)CCO)CC2)n(C)c2c1c(=O)n(CC(=O)c1ccccc1)c1ccccc21` [Example 517, N-[1-(3-hydroxypropanoyl)piperidin-4-yl]-3-methoxy-1-methyl-4-oxo-5-(2-oxo-2-phenylethyl)-4,5-dihydro-1H-pyrrolo[3,2-c]quinoline-2-carboxamide] it is 100%.
For the compound `CCc1cc2c(c(OC(C)C)c(C(=O)NC3CCN(C(=O)CO)CC3)n2C)c(=O)n1CC(=O)c1ccccc1` [Example 522, 6-ethyl-N-[1-(hydroxyacetyl)piperidin-4-yl]-1-methyl-3-(1-methylethoxy)-4-oxo-5-(2-oxo-2-phenylethyl)-4,5-dihydro-1H-pyrrolo[3,2-c]pyridine-2-carboxamide], the inhibition at 1 µM is 100%.
On the same count and under the same terms, the figure for `COc1c(C(=O)NC2CCN(C(=O)CO)CC2)sc2c1c(=O)n(CC(=O)c1ccccc1)c1ccc(F)cc21` [Example 562, 8-fluoro-N-[1-(hydroxyacetyl)piperidin-4-yl]-3-methoxy-4-oxo-5-(2-oxo-2-phenylethyl)-4,5-dihydrothieno[3,2-c]quinoline-2-carboxamide] is 100%; for `COc1c(C(=O)NC2CCN(c3ccncc3)CC2)n(C)c2c1c(=O)n(CC(=O)c1ccccc1)c1ccccc21` [Example 563, 3-methoxy-1-methyl-4-oxo-5-(2-oxo-2-phenylethyl)-N-(1-pyridin-4-ylpiperidin-4-yl)-4,5-dihydro-1H-pyrrolo[3,2-c]quinoline-2-carboxamide] it is 100%; for `COc1c(C(=O)NC2CCN(c3ccncn3)CC2)n(C)c2c1c(=O)n(CC(=O)c1ccccc1)c1ccccc21` [Example 583, 3-methoxy-1-methyl-4-oxo-5-(2-oxo-2-phenylethyl)-N-(1-pyrimidin-4-ylpiperidin-4-yl)-4,5-dihydro-1H-pyrrolo[3,2-c]quinoline-2-carboxamide] it is 100%.
The same measure, in the same setting: the figure for `COc1c(C(=O)NC2CCN(C(=O)CO)CC2)n(C)c2c1c(=O)n(CC(=O)c1ccccc1)c1ccc(F)cc21` [Example 584, 8-fluoro-N-[1-(hydroxyacetyl)piperidin-4-yl]-3-methoxy-1-methyl-4-oxo-5-(2-oxo-2-phenylethyl)-4,5-dihydro-1H-pyrrolo[3,2-c]quinoline-2-carboxamide] is 100%; for `COc1c(C(=O)NC2CCN(C(=O)CO)CC2)n(C)c2c1c(=O)n(CC(=O)c1ccccc1)c1ncccc21` [Example 643, N-[1-(hydroxyacetyl)piperidin-4-yl]-3-methoxy-1-methyl-4-oxo-5-(2-oxo-2-phenylethyl)-4,5-dihydro-1H-pyrrolo[3,2-c][1,8]naphthyridine-2-carboxamide] it is 100%.
